{"source": "patent US20150329918A1", "about": "“JAGGED1 AS A MARKER AND THERAPEUTIC TARGET FOR BREAST CANCER BONE METASTASIS” (The Trustees of Princeton University, priority 2011, published 2015)", "key": {"[1]": {"test_system": "Notch reporter", "assay": "Notch reporter assay in MC3T3-E1 osteoblasts cocultured with JAG1 OE tumor cells", "format": "cell-based, mouse", "conditions": "6-fold increase induced by JAG1 OE tumor cell coculture; FIG. 7A", "experimental": "For transfection experiments, MC3T3-E1 osteoblasts were seeded at 2×10^5 cells/well in 12-well plates and grown to 95% confluence. For reporter assays, the firefly luciferase Notchreporter (Zeng et al., 2005, which is incorporated herein by reference as if fully set forth) and cytomegalovirus (CMV)-Renilla luciferase control (Promega) plasmids were transfected using Lipofectamine 2000 at concentrations designated by the manufacturer's instructions. After 4 hours, the transfection media was changed to regular media containing 1×10^5 vector control or JAG1 OE tumor cells per well and plated in triplicate in the presence of DMSO or MRK-003. Following 2 days, the coculture was lysed and subjected to a luciferase assay in which firefly counts (Notch reporter activity) was divided by renilla counts to normalize for transfection efficiency. For siRNA transfection experiments, a scrambled control siRNA or two distinct targeting siRNAs against Rbpj #1-[…] [SEQ ID NO: 6] and #2-[…] [SEQ ID NO: 7] or Hey1 #1-[…] [SEQ ID NO: 8] and #2-[…] [SEQ ID NO: 9] […] Following 6 days, the coculture was lysed and subjected to a luciferase assay to selectively quantify the number of tumor cells. For gene expression analysis, RNA from cocultures was collected in RLT lysis buffer, extracted with RNeasy mini kit (Qiagen), and subjected to quantitative RT-PCR."}, "[2]": {"test_system": "MC3T3-E1 osteoblasts", "assay": "Microarray gene expression profiling of FACS-separated MC3T3-E1 osteoblasts", "format": "cell-based, mouse", "conditions": "FIG. 11B", "text": "For microarray analysis the quality of the FACS-separated MC3T3-E1 RNA samples was monitored using the 2100 bioanalyzer (Agilent) before gene expression profiling with the Agilent mouse […] microarrays. To find genes regulated by JAGGED1 and MRK-003 in osteoblasts, expression data of MC3T3-E1 under the indicated coculture and treatment conditions were generated and normalized by the array median, and probes were filtered by the expression levels. Probes with >2-fold changes in MC3T3-E1 cells cocultured with JAG1 OE tumor cells relative to vector-control tumor cells were identified as the regulated genes."}, "[3]": {"test_system": "gamma-secretase", "conditions": "Lewis et al., 2007; cited from earlier work"}, "[4]": {"test_system": "Notch", "conditions": "cited from earlier work"}}}
{"smiles": "O=S1(=O)N[C@@]2(CN1CC(F)(F)F)[C@@H]1CC[C@H]2Cc2ccc(/C=C/CN3CCC(C(F)(F)F)CC3)cc2C1", "note": "[MRK-003]", "values": [{"measurement": "Notch activity (Notch reporter)", "setting": "[1]", "value": "abolished"}, {"measurement": "123 genes activated at least 3-fold in MC3T3-E1 by JAG1 OE coculture", "setting": "[2]", "value": "concomitantly downregulated"}, {"measurement": "potency inhibiting gamma-secretase-mediated cleavage of Notch to NICD", "setting": "[3]", "value": "sub-nanomolar"}, {"measurement": "efficacy with intermittent exposure in mice", "setting": "[4]; Tammam et al., 2009", "value": "robust efficacy"}, {"measurement": "intestinal effect resulting from Notch inhibition", "setting": "[4]; recovery during dosing holiday", "value": "transient intestinal metaplasia (goblet cell induction)"}]}
